Test results taken from PubChem BioAssay AID1919003 (Molecular Pharmacology Branch, DTP, NCI, 2023).
pIC50: −log10 of the molar value. Several values for one entry are separate records, joined by “and”; a condition that tells them apart may be missing. Equal entries are not always repeated.

System: 786-0 complex spheroids with HUVEC/MSC, growth % test/control
Experiment: Anticancer human tumor 786-0 cell line growth inhibition [AhR];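 also: compound exposure lasted seven days before the read-out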
Settings: for viability, T/C: stronger effect = lower value
Method in brief: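 Agents were dosed in half-log steps down from roughly clinical Cmax, or from 10 microM where Cmax was unknown, alone and with AhR antagonists. Read-out: percent test/control growth of tumor spheroids containing HUVEC and MSC stromal cells.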

[1] = curve of first compound, second compound 0.1 µM
[2] = curve of first compound, second compound 0.316 µM
[3] = curve of first compound, second compound 1 µM
[4] = curve of first compound, second compound 3.16 µM
[5] = curve of first compound, second compound 10 µM

For COc1cccc2c1C(=O)c1c(O)c3c(c(O)c1C2=O)CC(O)(C(=O)CO)CC3OC1CC(N)C(O)C(C)O1 (stereo unspecified), the viability, T/C (compound 0.0316 µM) was 58.8% and 70% and 62%, the viability, T/C (compound 0.1 µM) was 51.9% and 65.6% and 44.9% and the viability, T/C (compound 0.316 µM) was 23.9% and 30.9% and 18.1%. For the same molecule, the viability, T/C (compound 1 µM) was 7% and 10.7% and 3.15%, the viability, T/C (compound 3.16 µM) was 0.81% and 3.57% and 0.53% and the viability, T/C (compound 10 µM) was 0.36% and 3.07% and 0.69%. The pIC50 (curve of compound) was 6.98 and 6.78 and 7.14.
For COc1ccc([C@@H](O)c2cc(-c3ncnc4cc(N5CCOCC5)ccc34)c(F)cc2Cl)nn1 + Cc1cncc(-c2nc(NCCc3c[nH]c4ccccc34)c3ncn(C(C)C)c3n2)c1, the pIC50 [1] was < 5.00, the pIC50 [2] was < 5.00 and the pIC50 [3] was < 5.00. The pIC50 [4] was < 5.00, the pIC50 [5] was > 7.50 and the viability, T/C (second compound 0.1 µM, first compound 0.0316 µM) was 103%. The viability, T/C (second compound 0.1 µM, first compound 0.1 µM) was 111%, the viability, T/C (second compound 0.1 µM, first compound 0.316 µM) was 111% and the viability, T/C (second compound 0.1 µM, first compound 1 µM) was 112%. The viability, T/C (second compound 0.1 µM, first compound 3.16 µM) was 109%, the viability, T/C (second compound 0.1 µM, first compound 10 µM) was 89.9% and the viability, T/C (second compound 0.316 µM, first compound 0.0316 µM) was 112%. For the same molecule, the viability, T/C (second compound 0.316 µM, first compound 0.1 µM) was 111%, the viability, T/C (second compound 0.316 µM, first compound 0.316 µM) was 114% and the viability, T/C (second compound 0.316 µM, first compound 1 µM) was 120%. For the same molecule, the viability, T/C (second compound 0.316 µM, first compound 3.16 µM) was 103%, the viability, T/C (second compound 0.316 µM, first compound 10 µM) was 95.4% and the viability, T/C (second compound 1 µM, first compound 0.0316 µM) was 107%. It also gave a viability, T/C (second compound 1 µM, first compound 0.1 µM) of 103%, a viability, T/C (second compound 1 µM, first compound 0.316 µM) of 96.4% and a viability, T/C (second compound 1 µM, first compound 1 µM) of 104%. It also gave a viability, T/C (second compound 1 µM, first compound 3.16 µM) of 103%, a viability, T/C (second compound 1 µM, first compound 10 µM) of 84.8% and a viability, T/C (second compound 3.16 µM, first compound 0.0316 µM) of 73%. It also gave a viability, T/C (second compound 3.16 µM, first compound 0.1 µM) of 73.3%, a viability, T/C (second compound 3.16 µM, first compound 0.316 µM) of 66.4% and a viability, T/C (second compound 3.16 µM, first compound 1 µM) of 62.7%. It also gave a viability, T/C (second compound 3.16 µM, first compound 3.16 µM) of 61.2%, a viability, T/C (second compound 3.16 µM, first compound 10 µM) of 61.5% and a viability, T/C (second compound 10 µM, first compound 0.0316 µM) of 6.44%. It also gave a viability, T/C (second compound 10 µM, first compound 0.1 µM) of 5.3%, a viability, T/C (second compound 10 µM, first compound 0.316 µM) of 8.33% and a viability, T/C (second compound 10 µM, first compound 1 µM) of 5.44%. The viability, T/C (second compound 10 µM, first compound 3.16 µM) was 5.99% and the viability, T/C (second compound 10 µM, first compound 10 µM) was 9.73%.
In the case of CCc1c2c(nc3ccc(O)cc13)-c1cc3c(c(=O)n1C2)COC(=O)[C@]3(O)CC, the viability, T/C (compound 0.000949 µM) was 86.2% and 105% and 92.8%, the viability, T/C (compound 0.003 µM) was 71.8% and 98.8% and 87.3% and the viability, T/C (compound 0.00949 µM) was 17.6% and 23.2% and 15.3%. The viability, T/C (compound 0.03 µM) was 5.33% and 8.68% and 6.03%, the viability, T/C (compound 0.0949 µM) was 2.54% and 5.4% and 3.46% and the viability, T/C (compound 0.3 µM) was 2.09% and 4.14% and 2.23%. For the same molecule, the pIC50 (curve of compound) was 8.32 and 8.20 and 8.26.
For O=C(C=Cn1cnc(-c2cc(C(F)(F)F)cc(C(F)(F)F)c2)n1)NNc1cnccn1, the viability, T/C (compound 0.00949 µM) was 106% (2×) and 101%, the viability, T/C (compound 0.03 µM) was 110% and 108% and 112% and the viability, T/C (compound 0.0949 µM) was 109% and 107% and 105%. The viability, T/C (compound 0.3 µM) was 66.8% and 69.5% and 52.4%, the viability, T/C (compound 0.949 µM) was 47.5% and 48.1% and 38.7% and the viability, T/C (compound 3 µM) was 20.5% and 24.1% and 16.9%. For the same molecule, the pIC50 (curve of compound) was 6.15 and 6.13 and 6.45.
CC(C)CC(NC(=O)C(Cc1ccccc1)NC(=O)c1cnccn1)B(O)O (stereo unspecified) + Cc1ccccc1N=Nc1ccc(NC(=O)c2ccnn2C)c(C)c1 gave a pIC50 [1] of 7.74, a pIC50 [2] of 7.75 and a pIC50 [3] of 7.76. The pIC50 [4] was 7.75, the pIC50 [5] was 7.76 and the viability, T/C (second compound 0.1 µM, first compound 0.000949 µM) was 96.9%. The viability, T/C (second compound 0.1 µM, first compound 0.003 µM) was 103%, the viability, T/C (second compound 0.1 µM, first compound 0.00949 µM) was 103% and the viability, T/C (second compound 0.1 µM, first compound 0.03 µM) was 11.9%. The viability, T/C (second compound 0.1 µM, first compound 0.0949 µM) was 0.85%, the viability, T/C (second compound 0.1 µM, first compound 0.3 µM) was 0.51% and the viability, T/C (second compound 0.316 µM, first compound 0.000949 µM) was 103%. It also gave a viability, T/C (second compound 0.316 µM, first compound 0.003 µM) of 110%, a viability, T/C (second compound 0.316 µM, first compound 0.00949 µM) of 98.6% and a viability, T/C (second compound 0.316 µM, first compound 0.03 µM) of 10.4%. It also gave a viability, T/C (second compound 0.316 µM, first compound 0.0949 µM) of 4.46%, a viability, T/C (second compound 0.316 µM, first compound 0.3 µM) of 0.43% and a viability, T/C (second compound 1 µM, first compound 0.000949 µM) of 106%. The viability, T/C (second compound 1 µM, first compound 0.003 µM) was 107%, the viability, T/C (second compound 1 µM, first compound 0.00949 µM) was 92.4% and the viability, T/C (second compound 1 µM, first compound 0.03 µM) was 11.7%. It also gave a viability, T/C (second compound 1 µM, first compound 0.0949 µM) of 0.98%, a viability, T/C (second compound 1 µM, first compound 0.3 µM) of 2% and a viability, T/C (second compound 3.16 µM, first compound 0.000949 µM) of 98.9%. It also gave a viability, T/C (second compound 3.16 µM, first compound 0.003 µM) of 96.1%, a viability, T/C (second compound 3.16 µM, first compound 0.00949 µM) of 104% and a viability, T/C (second compound 3.16 µM, first compound 0.03 µM) of 7.1%. The viability, T/C (second compound 3.16 µM, first compound 0.0949 µM) was 0.92%, the viability, T/C (second compound 3.16 µM, first compound 0.3 µM) was 0.45% and the viability, T/C (second compound 10 µM, first compound 0.000949 µM) was 104%. The viability, T/C (second compound 10 µM, first compound 0.003 µM) was 106%, the viability, T/C (second compound 10 µM, first compound 0.00949 µM) was 80.3% and the viability, T/C (second compound 10 µM, first compound 0.03 µM) was 21.8%. The viability, T/C (second compound 10 µM, first compound 0.0949 µM) was 1.78% and the viability, T/C (second compound 10 µM, first compound 0.3 µM) was 1.25%.
